PubChem BioAssay AID1963827 (Molecular Pharmacology Branch, DTP, NCI, 2024)

System: 994946-033-R-J1-PDC complex spheroid viability
Assay: Anticancer human tumor 994946-033-R-J1-PDC patient-derived melanoma cell line growth inhibition [POLQ]
Settings: for IC50: curve of first compound; for viability, T/C: stronger effect = lower value
Outline: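 Growth inhibition in 3D: complex spheroids (tumor PDC, HUVEC, MSC) treated with POLQ inhibitor combinations; where Cmax unknown, highest tested concentration 10 microM, except SN-38 at 1 microM.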

[1] = second compound 0.0316 µM, first compound 0.0316 µM
[2] = second compound 0.0316 µM, first compound 0.1 µM
[3] = second compound 0.0316 µM, first compound 0.316 µM
[4] = second compound 0.0316 µM, first compound 1 µM
[5] = second compound 0.0316 µM, first compound 3.16 µM
[6] = second compound 0.0316 µM, first compound 10 µM
[7] = second compound 0.1 µM, first compound 0.0316 µM
[8] = second compound 0.1 µM, first compound 0.1 µM
[9] = second compound 0.1 µM, first compound 0.316 µM
[10] = second compound 0.1 µM, first compound 1 µM
[11] = second compound 0.1 µM, first compound 3.16 µM
[12] = second compound 0.1 µM, first compound 10 µM
[13] = second compound 0.316 µM, first compound 0.0316 µM
[14] = second compound 0.316 µM, first compound 0.1 µM
[15] = second compound 0.316 µM, first compound 0.316 µM
[16] = second compound 0.316 µM, first compound 1 µM
[17] = second compound 0.316 µM, first compound 3.16 µM
[18] = second compound 0.316 µM, first compound 10 µM
[19] = second compound 1 µM, first compound 0.0316 µM
[20] = second compound 1 µM, first compound 0.1 µM
[21] = second compound 1 µM, first compound 0.316 µM
[22] = second compound 1 µM, first compound 1 µM
[23] = second compound 1 µM, first compound 3.16 µM
[24] = second compound 1 µM, first compound 10 µM
[25] = second compound 3.16 µM, first compound 0.0316 µM
[26] = second compound 3.16 µM, first compound 0.1 µM
[27] = second compound 3.16 µM, first compound 0.316 µM
[28] = second compound 3.16 µM, first compound 1 µM
[29] = second compound 3.16 µM, first compound 3.16 µM
[30] = second compound 3.16 µM, first compound 10 µM
[31] = second compound 10 µM, first compound 0.0316 µM
[32] = second compound 10 µM, first compound 0.1 µM
[33] = second compound 10 µM, first compound 0.316 µM
[34] = second compound 10 µM, first compound 1 µM
[35] = second compound 10 µM, first compound 3.16 µM
[36] = second compound 10 µM, first compound 10 µM
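Also: spheroids exposed to drugs for 7 days.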
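For viability, T/C in this document: 100% = DMSO vehicle treated spheroids.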

In the case of `O=c1[nH]cc(F)c(=O)[nH]1` + COC1C(OC(N)=O)C(O)C(Oc2ccc3c(O)c(NC(=O)c4ccc(O)c(CC=C(C)C)c4)c(=O)oc3c2C)OC1(C)C, the IC50 (second compound 0.0316 µM) is reported as greater than 10000 nM, the IC50 (second compound 0.1 µM) is reported as 8300 nM and the IC50 (second compound 0.316 µM) is reported as 7080 nM. The IC50 (second compound 1 µM) was greater than 10000 nM, the IC50 (second compound 3.16 µM) was 8980 nM and the IC50 (second compound 10 µM) was greater than 10000 nM. It also gave a viability, T/C [1] of 86%, a viability, T/C [2] of 130% and a viability, T/C [3] of 113%. For the same compound, the viability, T/C [4] was 76%, the viability, T/C [5] was 60.7% and the viability, T/C [6] was 53.7%. The viability, T/C [7] was 91.2%, the viability, T/C [8] was 93.2% and the viability, T/C [9] was 102%. It also gave a viability, T/C [10] of 82%, a viability, T/C [11] of 61.7% and a viability, T/C [12] of 47.4%. For the same compound, the viability, T/C [13] was 133%, the viability, T/C [14] was 99.6% and the viability, T/C [15] was 100%. For the same compound, the viability, T/C [16] was 71%, the viability, T/C [17] was 45.3% and the viability, T/C [18] was 53.5%. The viability, T/C [19] was 87.6%, the viability, T/C [20] was 102% and the viability, T/C [21] was 91.8%. It also gave a viability, T/C [22] of 57%, a viability, T/C [23] of 53.7% and a viability, T/C [24] of 53.9%. It also gave a viability, T/C [25] of 124%, a viability, T/C [26] of 113% and a viability, T/C [27] of 83.7%. It also gave a viability, T/C [28] of 65.9%, a viability, T/C [29] of 60.6% and a viability, T/C [30] of 50.4%. The viability, T/C [31] was 108%, the viability, T/C [32] was 114% and the viability, T/C [33] was 90.5%. The viability, T/C [34] was 81.1%, the viability, T/C [35] was 58.6% and the viability, T/C [36] was 61.5%.
Compound `COc1cc(C2c3cc4c(cc3C(OC3OC5COC(C)OC5C(O)C3O)C3COC(=O)C23)OCO4)cc(OC)c1O` (stereo unspecified) + Cc1cccc(N(C)C(=O)C2C(O)CCN2c2nc(C)cc(C(F)(F)F)c2C#N)c1 has an IC50 (second compound 0.0316 µM) of 183 nM, an IC50 (second compound 0.1 µM) of 164 nM and an IC50 (second compound 0.316 µM) of 250 nM. It also gave an IC50 (second compound 1 µM) of 207 nM, an IC50 (second compound 3.16 µM) of 388 nM and an IC50 (second compound 10 µM) of 1260 nM. For the same compound, the viability, T/C [1] was 76.3%, the viability, T/C [2] was 55.2% and the viability, T/C [3] was 42.6%. For the same compound, the viability, T/C [4] was 32.4%, the viability, T/C [5] was 14.2% and the viability, T/C [6] was 6.56%. It also gave a viability, T/C [7] of 77.8%, a viability, T/C [8] of 47.9% and a viability, T/C [9] of 44.9%. The viability, T/C [10] was 32.4%, the viability, T/C [11] was 10.9% and the viability, T/C [12] was 5.27%. It also gave a viability, T/C [13] of 79.7%, a viability, T/C [14] of 63.1% and a viability, T/C [15] of 34.4%. The viability, T/C [16] was 49.7%, the viability, T/C [17] was 12.9% and the viability, T/C [18] was 8.08%. For the same compound, the viability, T/C [19] was 89.2%, the viability, T/C [20] was 49.1% and the viability, T/C [21] was 47.2%. It also gave a viability, T/C [22] of 35.3%, a viability, T/C [23] of 13.5% and a viability, T/C [24] of 5.19%. The viability, T/C [25] was 72.5%, the viability, T/C [26] was 64.5% and the viability, T/C [27] was 56.8%. For the same compound, the viability, T/C [28] was 27.4%, the viability, T/C [29] was 14.1% and the viability, T/C [30] was 5.31%. The viability, T/C [31] was 67.5%, the viability, T/C [32] was 45.3% and the viability, T/C [33] was 63.3%. It also gave a viability, T/C [34] of 58.7%, a viability, T/C [35] of 14.8% and a viability, T/C [36] of 6.96%.
With `CC1COCCN1c1cc(-c2ccnn2C)c2ccnc(-c3ccn[nH]3)c2n1` (stereo unspecified) + COC1C(OC(N)=O)C(O)C(Oc2ccc3c(O)c(NC(=O)c4ccc(O)c(CC=C(C)C)c4)c(=O)oc3c2C)OC1(C)C the IC50 (second compound 0.0316 µM) was 48.2 nM, the IC50 (second compound 0.1 µM) was 79.2 nM and the IC50 (second compound 0.316 µM) was 151 nM. For the same compound, the IC50 (second compound 1 µM) was 77 nM, the IC50 (second compound 3.16 µM) was 57 nM and the IC50 (second compound 10 µM) was 58.4 nM. It also gave a viability, T/C [1] of 58.2%, a viability, T/C [2] of 33.9% and a viability, T/C [3] of 31.6%. It also gave a viability, T/C [4] of 18.4%, a viability, T/C [5] of 20.4% and a viability, T/C [6] of 11.8%. The viability, T/C [7] was 107%, the viability, T/C [8] was 35.2% and the viability, T/C [9] was 21.5%. The viability, T/C [10] was 30.3%, the viability, T/C [11] was 16.8% and the viability, T/C [12] was 12.3%. The viability, T/C [13] was 72.3%, the viability, T/C [14] was 60.4% and the viability, T/C [15] was 31.5%. For the same compound, the viability, T/C [16] was 22%, the viability, T/C [17] was 24.5% and the viability, T/C [18] was 13.6%. It also gave a viability, T/C [19] of 100%, a viability, T/C [20] of 34.5% and a viability, T/C [21] of 23.9%. The viability, T/C [22] was 23.2%, the viability, T/C [23] was 20.8% and the viability, T/C [24] was 12.6%. The viability, T/C [25] was 76.4%, the viability, T/C [26] was 24.7% and the viability, T/C [27] was 18.2%. It also gave a viability, T/C [28] of 13.4%, a viability, T/C [29] of 14.9% and a viability, T/C [30] of 13.5%. For the same compound, the viability, T/C [31] was 69.2%, the viability, T/C [32] was 32% and the viability, T/C [33] was 21.2%. The viability, T/C [34] was 32%, the viability, T/C [35] was 18.5% and the viability, T/C [36] was 10.3%.
